Laboratory results published in BindingDB's records for doi:10.1021/jm00025a010 (Eli Lilly, 1995).

The compounds below were run against T1, Gag-Pol polyprotein [588-1027]/[588-1147] (Human immunodeficiency virus 1, UniProt P04585) (assay: HIV-1 RT Assay). Conditions: not given.
T1 construct: 588-1027; 588-1147

Row | SMILES | IC50
1 | S=C(NCCc1ccncc1)Nc1nccs1 [1-[2-(pyridin-4-yl)ethyl]-3-1,3-thiazol-2-ylthiourea] | > 10 µM
2 | S=C(NCCc1cccnc1)Nc1nccs1 [1-[2-(pyridin-3-yl)ethyl]-3-1,3-thiazol-2-ylthiourea] | > 10 µM
3 | CCCCCCOc1cccc(CC/N=C(\S)Nc2nccs2)c1 [N-(2-(3-(Hexyloxy)phenethyl))-N -(2-thiazolyl)thiourea] | > 10 µM

Same assay, conditions: pH 7.8; 37 °C

Row | SMILES | IC50
4 | CCc1csc(NC(=S)NCCc2c(F)cccc2F)n1 [N-(2-(2,6-Difluorophenyl)ethyl)-N -(2-(4-ethylthiazolyl))thiourea] | 0.0055 µM
5 | S=C(NCCc1ccccc1)Nc1cc[nH]n1 [N-(2-Phenethyl)-N -(3-pyrazolyl)thiourea] | > 10 µM
6 | Cc1csc(NC(=S)NCCc2ccccc2)n1 [3-(4-methyl-1,3-thiazol-2-yl)-1-(2-phenylethyl)thiourea] | 0.1 µM
7 | S=C(NCCc1ccccc1)Nc1ncccc1Br [N-(2-Phenethyl)-N -(2-(3-bromopyridyl))thiourea] | > 10 µM
8 | O=C(O)c1csc(/N=C(\S)NCCc2ccccc2)n1 [2-{[(2-phenylethyl)carbamothioyl]amino}-1,3-thiazole-4-carboxylic acid] | > 10 µM
